Results from patent US10844077B2, “Thiazolyl-containing compounds for treating proliferative diseases” (Dana-Farber Cancer Institute, Inc., priority 2014, dated 2020).

Columns and labels:
Assay type in all cases: binding
broad panel of kinases [1] = biological target: broad panel of kinases (Homo sapiens, UniProt O96013); conditions: PAK4; 1 μM
broad panel of kinases [2] = biological target: broad panel of kinases (Homo sapiens, UniProt Q04759); conditions: PRKCQ; 1 μM
broad panel of kinases [3] = biological target: broad panel of kinases (Homo sapiens, UniProt P14616); conditions: INSRR; 1 μM
broad panel of kinases [4] = biological target: broad panel of kinases (Homo sapiens, UniProt P41743); conditions: PRKCI; 1 μM
broad panel of kinases [5] = biological target: broad panel of kinases (Homo sapiens, UniProt Q13131); conditions: AMPK-alpha1; 1 μM
broad panel of kinases [6] = biological target: broad panel of kinases (Mycobacterium tuberculosis, UniProt P9WI81)
broad panel of kinases [7] = biological target: broad panel of kinases (Homo sapiens, UniProt P29322); conditions: EPHA8; 1 μM
broad panel of kinases [8] = biological target: broad panel of kinases (Homo sapiens, UniProt Q8NI60); conditions: ADCK3; 1 μM
broad panel of kinases [9] = biological target: broad panel of kinases (Homo sapiens, UniProt Q8TD19); conditions: NEK9; 1 μM
broad panel of kinases [10] = biological target: broad panel of kinases (Homo sapiens, UniProt Q13237); conditions: PRKG2; 1 μM
broad panel of kinases [11] = biological target: broad panel of kinases (Homo sapiens, UniProt O43353); conditions: RIPK2; 1 μM
broad panel of kinases [12] = biological target: broad panel of kinases (Homo sapiens, UniProt P36507); conditions: MEK2; 1 μM
broad panel of kinases [13] = biological target: broad panel of kinases (Homo sapiens, UniProt Q13163); conditions: MEK5; 1 μM
broad panel of kinases [14] = biological target: broad panel of kinases (Homo sapiens, UniProt Q14289); conditions: PYK2; 1 μM
broad panel of kinases [15] = biological target: broad panel of kinases (Homo sapiens, UniProt Q92918); conditions: HPK1; 1 μM
broad panel of kinases [16] = biological target: broad panel of kinases (Homo sapiens, UniProt Q9Y6R4); conditions: MAP3K4; 1 μM
broad panel of kinases [17] = biological target: broad panel of kinases (Homo sapiens, UniProt P42336, M1043I); conditions: PIK3CA(M1043I); 1 μM
broad panel of kinases [18] = biological target: broad panel of kinases (Homo sapiens, UniProt P45985); conditions: MEK4; 1 μM
broad panel of kinases [19] = biological target: broad panel of kinases (Homo sapiens, UniProt P43403); conditions: ZAP70; 1 μM
broad panel of kinases [20] = biological target: broad panel of kinases (Homo sapiens, UniProt Q8NEV4); conditions: MYO3A; 1 μM
broad panel of kinases [21] = biological target: broad panel of kinases (Homo sapiens, UniProt P00533, L858R/T790M); conditions: EGFR(L858R, T790M); 1 μM
broad panel of kinases [22] = biological target: broad panel of kinases (Homo sapiens, UniProt Q15139); conditions: PRKD1; 1 μM
broad panel of kinases [23] = biological target: broad panel of kinases (Homo sapiens, UniProt P22607, G697C); conditions: FGFR3(G697C); 1 μM
broad panel of kinases [24] = biological target: broad panel of kinases (Homo sapiens, UniProt Q00535); conditions: CDK5; 1 μM
broad panel of kinases [25] = biological target: broad panel of kinases (Homo sapiens, UniProt O00329); conditions: PIK3CD; 1 μM
broad panel of kinases [26] = biological target: broad panel of kinases (Homo sapiens, UniProt P35968); conditions: VEGFR2; 1 μM
broad panel of kinases [27] = biological target: broad panel of kinases (Homo sapiens, UniProt P49761); conditions: CLK3; 1 μM
broad panel of kinases [28] = biological target: broad panel of kinases (Homo sapiens, UniProt P54756); conditions: EPHA5; 1 μM
broad panel of kinases [29] = biological target: broad panel of kinases (Homo sapiens, UniProt Q52WX2); conditions: SBK1; 1 μM
broad panel of kinases [30] = biological target: broad panel of kinases (Homo sapiens, UniProt P06213); conditions: INSR; 1 μM
broad panel of kinases [31] = biological target: broad panel of kinases (Homo sapiens, UniProt O43293); conditions: DAPK3; 1 μM
broad panel of kinases [32] = biological target: broad panel of kinases (Homo sapiens, UniProt Q9HBH9); conditions: MKNK2; 1 μM
broad panel of kinases [33] = biological target: broad panel of kinases (Homo sapiens, UniProt Q07002); conditions: PCTK3; 1 μM
broad panel of kinases [34] = biological target: broad panel of kinases (Homo sapiens, UniProt P28482); conditions: ERK2; 1 μM
broad panel of kinases [35] = biological target: broad panel of kinases (Homo sapiens, UniProt P19784); conditions: CSNK2A2; 1 μM
broad panel of kinases [36] = biological target: broad panel of kinases (Homo sapiens, UniProt Q00536); conditions: PCTK1; 1 μM
broad panel of kinases [37] = biological target: broad panel of kinases (Homo sapiens, UniProt Q13164); conditions: ERK5; 1 μM

Chain of broad panel of kinases (Mycobacterium tuberculosis, UniProt P9WI81) (P9WI81 2-626 limits assumed): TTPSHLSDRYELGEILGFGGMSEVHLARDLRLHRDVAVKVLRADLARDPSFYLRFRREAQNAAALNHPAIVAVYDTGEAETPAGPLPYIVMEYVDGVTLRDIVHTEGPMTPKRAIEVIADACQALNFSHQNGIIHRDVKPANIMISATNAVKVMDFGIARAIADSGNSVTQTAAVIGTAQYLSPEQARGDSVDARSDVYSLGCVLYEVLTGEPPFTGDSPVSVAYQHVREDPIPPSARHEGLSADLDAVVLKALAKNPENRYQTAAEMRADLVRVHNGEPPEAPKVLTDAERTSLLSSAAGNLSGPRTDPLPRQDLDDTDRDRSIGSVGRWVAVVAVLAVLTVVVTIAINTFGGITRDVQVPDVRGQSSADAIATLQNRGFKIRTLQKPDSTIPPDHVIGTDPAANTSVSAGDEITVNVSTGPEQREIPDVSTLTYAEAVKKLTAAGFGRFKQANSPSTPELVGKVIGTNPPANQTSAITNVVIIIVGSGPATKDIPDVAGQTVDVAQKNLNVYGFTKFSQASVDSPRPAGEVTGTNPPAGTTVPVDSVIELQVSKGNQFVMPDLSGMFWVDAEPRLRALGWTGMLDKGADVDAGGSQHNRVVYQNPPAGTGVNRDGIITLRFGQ
Chain of broad panel of kinases (Homo sapiens, UniProt P28482) (P28482 2-360 limits assumed): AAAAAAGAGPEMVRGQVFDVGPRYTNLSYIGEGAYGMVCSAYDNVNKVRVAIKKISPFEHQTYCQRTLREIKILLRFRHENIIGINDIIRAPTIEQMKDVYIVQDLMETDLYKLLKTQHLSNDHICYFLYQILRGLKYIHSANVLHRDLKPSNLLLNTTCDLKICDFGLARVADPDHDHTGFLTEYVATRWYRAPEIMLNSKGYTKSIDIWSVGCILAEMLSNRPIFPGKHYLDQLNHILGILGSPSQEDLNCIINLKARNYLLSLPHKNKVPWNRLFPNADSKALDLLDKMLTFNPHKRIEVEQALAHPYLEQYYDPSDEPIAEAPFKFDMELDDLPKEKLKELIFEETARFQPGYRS
Chain of broad panel of kinases (Homo sapiens, UniProt P35968) (P35968 20-1356 limits assumed): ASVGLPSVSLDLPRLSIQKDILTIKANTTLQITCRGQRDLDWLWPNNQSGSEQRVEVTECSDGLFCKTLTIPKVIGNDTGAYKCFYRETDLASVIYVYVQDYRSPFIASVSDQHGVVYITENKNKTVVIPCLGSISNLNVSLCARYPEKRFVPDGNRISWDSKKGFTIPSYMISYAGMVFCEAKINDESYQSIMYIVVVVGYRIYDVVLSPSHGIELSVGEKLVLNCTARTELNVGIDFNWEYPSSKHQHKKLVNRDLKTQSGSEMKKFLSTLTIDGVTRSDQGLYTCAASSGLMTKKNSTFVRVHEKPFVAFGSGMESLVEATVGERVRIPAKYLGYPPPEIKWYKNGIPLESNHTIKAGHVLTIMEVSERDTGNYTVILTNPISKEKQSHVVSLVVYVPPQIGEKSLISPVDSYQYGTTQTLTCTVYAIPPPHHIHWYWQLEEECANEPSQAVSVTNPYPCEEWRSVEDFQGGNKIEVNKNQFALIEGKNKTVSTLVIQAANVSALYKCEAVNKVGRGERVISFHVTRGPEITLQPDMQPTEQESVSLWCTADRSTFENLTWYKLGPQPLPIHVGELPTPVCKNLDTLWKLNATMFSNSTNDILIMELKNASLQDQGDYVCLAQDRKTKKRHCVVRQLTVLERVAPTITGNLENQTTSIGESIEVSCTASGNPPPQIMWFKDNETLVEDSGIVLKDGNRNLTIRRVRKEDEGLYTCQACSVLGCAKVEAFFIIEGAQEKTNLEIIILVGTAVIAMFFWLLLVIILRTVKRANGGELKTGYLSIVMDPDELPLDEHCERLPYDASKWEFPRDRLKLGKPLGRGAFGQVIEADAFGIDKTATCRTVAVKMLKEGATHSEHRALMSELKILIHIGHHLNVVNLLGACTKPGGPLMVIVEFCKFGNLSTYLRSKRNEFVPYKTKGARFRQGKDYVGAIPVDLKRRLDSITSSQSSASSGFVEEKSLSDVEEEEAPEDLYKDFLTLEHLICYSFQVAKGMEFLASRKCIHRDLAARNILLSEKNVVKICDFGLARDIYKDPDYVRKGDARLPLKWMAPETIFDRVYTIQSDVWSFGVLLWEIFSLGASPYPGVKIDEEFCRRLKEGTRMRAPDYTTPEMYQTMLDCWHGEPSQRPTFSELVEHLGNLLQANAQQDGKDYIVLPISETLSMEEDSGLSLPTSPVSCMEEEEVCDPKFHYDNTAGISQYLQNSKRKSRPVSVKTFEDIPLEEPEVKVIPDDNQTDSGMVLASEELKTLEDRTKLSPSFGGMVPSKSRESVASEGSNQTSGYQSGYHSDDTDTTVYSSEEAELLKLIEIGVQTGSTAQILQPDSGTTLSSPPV
Chain of broad panel of kinases (Homo sapiens, UniProt P45985) (P45985 2-399 limits assumed): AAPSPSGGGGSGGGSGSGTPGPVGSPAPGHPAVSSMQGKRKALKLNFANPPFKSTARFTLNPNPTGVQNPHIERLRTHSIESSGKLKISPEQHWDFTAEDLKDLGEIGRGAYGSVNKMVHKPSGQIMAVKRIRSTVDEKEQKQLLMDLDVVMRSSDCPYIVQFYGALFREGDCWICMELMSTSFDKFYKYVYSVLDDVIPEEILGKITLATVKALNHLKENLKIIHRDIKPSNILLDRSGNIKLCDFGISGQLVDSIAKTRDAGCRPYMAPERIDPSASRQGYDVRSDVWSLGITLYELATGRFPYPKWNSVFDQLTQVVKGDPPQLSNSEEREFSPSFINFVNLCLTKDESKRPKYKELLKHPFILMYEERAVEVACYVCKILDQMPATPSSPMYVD
Chain of broad panel of kinases (Homo sapiens, UniProt P54756) (P54756 25-1037 limits assumed): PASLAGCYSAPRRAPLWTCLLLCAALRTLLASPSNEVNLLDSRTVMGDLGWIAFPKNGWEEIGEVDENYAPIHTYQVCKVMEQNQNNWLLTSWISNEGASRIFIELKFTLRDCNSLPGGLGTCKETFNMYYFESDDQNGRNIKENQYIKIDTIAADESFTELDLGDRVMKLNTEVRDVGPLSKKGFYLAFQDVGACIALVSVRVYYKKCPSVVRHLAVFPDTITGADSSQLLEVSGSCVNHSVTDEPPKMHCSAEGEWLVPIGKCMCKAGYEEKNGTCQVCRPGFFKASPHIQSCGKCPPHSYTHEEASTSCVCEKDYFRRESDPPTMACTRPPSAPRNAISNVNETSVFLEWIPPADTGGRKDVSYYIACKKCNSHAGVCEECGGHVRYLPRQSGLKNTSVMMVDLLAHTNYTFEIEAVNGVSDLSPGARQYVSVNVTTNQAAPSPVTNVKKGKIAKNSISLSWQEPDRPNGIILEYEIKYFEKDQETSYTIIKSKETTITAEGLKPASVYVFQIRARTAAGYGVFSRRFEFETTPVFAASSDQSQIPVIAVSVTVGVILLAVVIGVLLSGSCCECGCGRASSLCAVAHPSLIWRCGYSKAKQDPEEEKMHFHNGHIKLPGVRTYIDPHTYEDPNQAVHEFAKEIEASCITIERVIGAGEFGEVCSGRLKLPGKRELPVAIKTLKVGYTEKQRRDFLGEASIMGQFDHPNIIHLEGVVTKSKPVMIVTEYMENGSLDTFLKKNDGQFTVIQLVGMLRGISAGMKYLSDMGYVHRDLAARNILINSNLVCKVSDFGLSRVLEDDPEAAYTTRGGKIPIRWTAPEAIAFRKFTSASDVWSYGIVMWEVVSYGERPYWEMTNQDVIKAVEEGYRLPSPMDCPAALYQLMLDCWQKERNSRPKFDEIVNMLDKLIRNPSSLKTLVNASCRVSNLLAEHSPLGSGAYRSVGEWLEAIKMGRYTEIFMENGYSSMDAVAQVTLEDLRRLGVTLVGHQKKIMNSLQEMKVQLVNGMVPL
Chain of broad panel of kinases (Homo sapiens, UniProt P14616) (P14616 27-742 limits assumed): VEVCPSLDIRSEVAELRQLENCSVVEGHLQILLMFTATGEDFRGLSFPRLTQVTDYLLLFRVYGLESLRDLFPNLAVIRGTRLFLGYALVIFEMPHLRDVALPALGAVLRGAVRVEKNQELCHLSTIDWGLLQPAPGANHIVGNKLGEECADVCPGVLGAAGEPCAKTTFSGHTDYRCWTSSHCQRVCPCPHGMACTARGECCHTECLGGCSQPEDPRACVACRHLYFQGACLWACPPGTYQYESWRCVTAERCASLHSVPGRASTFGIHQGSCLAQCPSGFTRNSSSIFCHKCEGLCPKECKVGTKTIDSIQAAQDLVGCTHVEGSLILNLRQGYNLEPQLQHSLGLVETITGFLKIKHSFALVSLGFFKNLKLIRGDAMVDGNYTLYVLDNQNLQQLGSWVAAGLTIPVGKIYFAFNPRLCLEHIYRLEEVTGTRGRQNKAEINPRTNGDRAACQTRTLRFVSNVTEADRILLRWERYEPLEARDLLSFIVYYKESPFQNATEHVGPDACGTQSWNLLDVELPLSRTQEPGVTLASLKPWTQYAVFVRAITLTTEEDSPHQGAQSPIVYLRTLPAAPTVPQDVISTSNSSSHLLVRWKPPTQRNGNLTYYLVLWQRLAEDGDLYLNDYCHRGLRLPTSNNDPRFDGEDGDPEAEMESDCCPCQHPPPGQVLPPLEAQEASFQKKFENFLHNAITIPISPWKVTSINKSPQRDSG
Chain of broad panel of kinases (Homo sapiens, UniProt P14616) (P14616 747-1297 limits assumed): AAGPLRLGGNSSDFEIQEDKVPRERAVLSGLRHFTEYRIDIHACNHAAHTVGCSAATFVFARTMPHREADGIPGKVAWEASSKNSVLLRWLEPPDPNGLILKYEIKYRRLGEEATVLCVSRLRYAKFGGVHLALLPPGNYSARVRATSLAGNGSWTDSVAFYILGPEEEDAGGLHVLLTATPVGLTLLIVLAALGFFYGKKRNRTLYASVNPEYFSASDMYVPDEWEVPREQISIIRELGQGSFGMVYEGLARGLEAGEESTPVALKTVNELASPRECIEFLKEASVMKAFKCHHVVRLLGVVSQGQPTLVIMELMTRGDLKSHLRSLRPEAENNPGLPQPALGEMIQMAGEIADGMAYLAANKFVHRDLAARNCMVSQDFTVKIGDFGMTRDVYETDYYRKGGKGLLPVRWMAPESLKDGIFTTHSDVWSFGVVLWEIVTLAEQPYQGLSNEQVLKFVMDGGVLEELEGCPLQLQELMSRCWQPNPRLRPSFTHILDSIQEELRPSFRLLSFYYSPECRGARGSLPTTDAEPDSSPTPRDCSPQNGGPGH

Row | Compound | percent of control binding remaining (lower = stronger binding) (broad panel of kinases [1]) [%] | percent of control binding remaining (lower = stronger binding) (broad panel of kinases [2]) [%] | percent of control binding remaining (lower = stronger binding) (broad panel of kinases [3]) [%] | percent of control binding remaining (lower = stronger binding) (broad panel of kinases [4]) [%] | percent of control binding remaining (lower = stronger binding) (broad panel of kinases [5]) [%] | % change compared to control (broad panel of kinases [6]) [%] | percent of control binding remaining (lower = stronger binding) (broad panel of kinases [7]) [%] | percent of control binding remaining (lower = stronger binding) (broad panel of kinases [8]) [%] | percent of control binding remaining (lower = stronger binding) (broad panel of kinases [9]) [%] | percent of control binding remaining (lower = stronger binding) (broad panel of kinases [10]) [%] | percent of control binding remaining (lower = stronger binding) (broad panel of kinases [11]) [%] | percent of control binding remaining (lower = stronger binding) (broad panel of kinases [12]) [%] | percent of control binding remaining (lower = stronger binding) (broad panel of kinases [13]) [%] | percent of control binding remaining (lower = stronger binding) (broad panel of kinases [14]) [%] | percent of control binding remaining (lower = stronger binding) (broad panel of kinases [15]) [%] | percent of control binding remaining (lower = stronger binding) (broad panel of kinases [16]) [%] | percent of control binding remaining (lower = stronger binding) (broad panel of kinases [17]) [%] | percent of control binding remaining (lower = stronger binding) (broad panel of kinases [18]) [%] | percent of control binding remaining (lower = stronger binding) (broad panel of kinases [19]) [%] | percent of control binding remaining (lower = stronger binding) (broad panel of kinases [20]) [%] | also measured
1 | C=CC(=O)N1CC[C@H](Nc2nc(CN3CCOCC3)cc(Nc3ncc(C(=O)Nc4c(C)cccc4C)s3)n2)C1 [Example I-2] | 100 | 94 | 96 | 94 | 100 | 73 | 0.75 | 9.2 | 100 | 99 | 14 | 78 | 0.25 | 100 | 51 | 83 | 96 | 100 | 99 | 93 | percent of control binding remaining (lower = stronger binding) (broad panel of kinases [21]): 48%; percent of control binding remaining (lower = stronger binding) (broad panel of kinases [22]): 93%; percent of control binding remaining (lower = stronger binding) (broad panel of kinases [23]): 100%; percent of control binding remaining (lower = stronger binding) (broad panel of kinases [24]): 100%; percent of control binding remaining (lower = stronger binding) (broad panel of kinases [25]): 79%; percent of control binding remaining (lower = stronger binding) (broad panel of kinases [26]): 100%; percent of control binding remaining (lower = stronger binding) (broad panel of kinases [27]): 100%; percent of control binding remaining (lower = stronger binding) (broad panel of kinases [28]): 0.95%; percent of control binding remaining (lower = stronger binding) (broad panel of kinases [29]): 54%; percent of control binding remaining (lower = stronger binding) (broad panel of kinases [30]): 67%; percent of control binding remaining (lower = stronger binding) (broad panel of kinases [31]): 89%; percent of control binding remaining (lower = stronger binding) (broad panel of kinases [32]): 100%; percent of control binding remaining (lower = stronger binding) (broad panel of kinases [33]): 99%; percent of control binding remaining (lower = stronger binding) (broad panel of kinases [34]): 100%; percent of control binding remaining (lower = stronger binding) (broad panel of kinases [35]): 57%; percent of control binding remaining (lower = stronger binding) (broad panel of kinases [36]): 97%; percent of control binding remaining (lower = stronger binding) (broad panel of kinases [37]): 91%
2 | C=CC(=O)N1CC[C@H](Nc2nccc(Nc3ncc(C(=O)Nc4c(C)cccc4C)s3)n2)C1 [Example I-3] | 100 | 98 | 100 | 90 | 98 | 91 | 0.45 | 49 | 100 | 91 | 31 | 100 | 0.45 | 100 | 61 | 95 | 100 | 100 | 100 | 96 | percent of control binding remaining (lower = stronger binding) (broad panel of kinases [21]): 42%; percent of control binding remaining (lower = stronger binding) (broad panel of kinases [22]): 94%; % change compared to control (broad panel of kinases [23]): 99%; percent of control binding remaining (lower = stronger binding) (broad panel of kinases [24]): 100%; percent of control binding remaining (lower = stronger binding) (broad panel of kinases [25]): 85%; percent of control binding remaining (lower = stronger binding) (broad panel of kinases [26]): 100%; percent of control binding remaining (lower = stronger binding) (broad panel of kinases [27]): 95%; percent of control binding remaining (lower = stronger binding) (broad panel of kinases [28]): 0.85%; percent of control binding remaining (lower = stronger binding) (broad panel of kinases [29]): 58%; percent of control binding remaining (lower = stronger binding) (broad panel of kinases [30]): 93%; percent of control binding remaining (lower = stronger binding) (broad panel of kinases [31]): 84%; percent of control binding remaining (lower = stronger binding) (broad panel of kinases [32]): 98%; percent of control binding remaining (lower = stronger binding) (broad panel of kinases [33]): 92%; percent of control binding remaining (lower = stronger binding) (broad panel of kinases [34]): 100%; percent of control binding remaining (lower = stronger binding) (broad panel of kinases [35]): 70%; percent of control binding remaining (lower = stronger binding) (broad panel of kinases [36]): 100%; percent of control binding remaining (lower = stronger binding) (broad panel of kinases [37]): 90%
